Results on 8 compounds are retold here after ChEMBL document CHEMBL1201862, “PubChem BioAssay data set” (2004).

Among the test systems are A498; A549; ACHN; COLO 205; HCT-116; HL-60; MDA-MB-435; NCI-H23; NCI/ADR-RES; OVCAR-3; OVCAR-8; SF-295; SF-539; SN12C; TK-10; U-251; K562; NCI-H522; OVCAR-4; RXF 393.
What all share (assay): DTP human tumour cell line panel, 48 h

SMILES strings stand for the structures.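 Interpolation was linear, between the two tested concentrations surrounding the appropriate level; five concentrations were tested over 48 hours in 96-well plates. GI50 marks 50% less growth.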 The source made the active and inactive calls. Cut-off read from the data, not from the text of the source: active = GI50 up to about 1.1 µM and inactive = higher.

In general, GI50 refers to the concentration that inhibits growth by half. With `O=[N+]([O-])c1cccc([N+](=O)[O-])c1S(=O)(=O)c1ccccc1`, the GI50 in the assay with A498 was 18.8 µM (inactive); in the assay on A549 it was 19.8 µM (inactive); in the assay on ACHN, 2.17 µM (inactive); in the assay on COLO 205, 6.18 µM (inactive); in the assay with HCT-116, 1.89 µM (inactive); in the assay with HL-60, 2.71 µM (inactive). The GI50 is 3.61 µM (inactive) in the assay with MDA-MB-435; 21.3 µM (inactive) in the assay with NCI-H23; 6.24 µM (inactive) with NCI/ADR-RES; 2.49 µM (inactive) in the assay with OVCAR-3; 2.48 µM (inactive) with OVCAR-8; 16.4 µM (inactive) in the assay with SF-295. In addition, the GI50 in the assay with SF-539 is 15.8 µM (inactive); in the assay with SN12C, 3.83 µM (inactive); in the assay on TK-10, 16 µM (inactive); with U-251 it was 8.95 µM (inactive).

In the case of `O=C(O)c1ccc(C(O)(c2ccccc2)c2ccccc2)cc1`, the GI50 in the assay on A549, in the assay with ACHN, with COLO 205, in the assay on HCT-116, with HL-60 and in the assay with K562 was > 100 µM (inactive) each time. Besides, the GI50 with MDA-MB-435, in the assay on NCI-H23, in the assay with NCI-H522, with NCI/ADR-RES, in the assay on OVCAR-3 and with OVCAR-4 was > 100 µM (inactive) throughout. The GI50 in the assay on OVCAR-8, in the assay with SF-295, in the assay on SN12C, in the assay with TK-10 and in the assay on U-251 was > 100 µM (inactive) in each case.

Regarding `Cc1ccc(S[C@@H](C)[C@@](O)(C(N)=O)c2ccccc2)cc1`, the GI50 with A549 is 42.1 µM (inactive); in the assay with ACHN, 68.5 µM (inactive); in the assay on COLO 205 it was 34.4 µM (inactive); with HCT-116 it was 35.2 µM (inactive); with HL-60 it was 37.3 µM (inactive); in the assay on K562, 15 µM (inactive). Moreover, the GI50 is 45.6 µM (inactive) with MDA-MB-435; 29.8 µM (inactive) in the assay with NCI-H23; 16.7 µM (inactive) in the assay on NCI-H522; 19.9 µM (inactive) in the assay on NCI/ADR-RES; > 100 µM (inactive) in the assay with OVCAR-3; 21 µM (inactive) in the assay on OVCAR-4. Also, the GI50 in the assay with OVCAR-8 was 38.5 µM (inactive); in the assay on RXF 393 it was 86.1 µM (inactive); in the assay with SF-295 it was 18.5 µM (inactive); with SF-539 it was 25.6 µM (inactive); in the assay on SN12C it was > 100 µM (inactive); with TK-10, > 100 µM (inactive). Further, in the assay on U-251, the GI50 is 70.3 µM (inactive).

Regarding `COc1ccc(Cn2c(=O)c(OC)c(C)c3cc4ccccc4cc32)cc1`, the GI50 in the assay on A549 is 34.4 µM (inactive); in the assay on ACHN, 34.6 µM (inactive); in the assay with COLO 205 it was 20.1 µM (inactive); with HCT-116 it was 18.6 µM (inactive); in the assay on HL-60 it was 20 µM (inactive); in the assay on K562, 28.3 µM (inactive). In addition, the GI50 is 28.1 µM (inactive) in the assay with MDA-MB-435; 22.3 µM (inactive) in the assay on NCI-H23; 21.4 µM (inactive) with NCI-H522; 22.1 µM (inactive) in the assay on NCI/ADR-RES; 19.9 µM (inactive) in the assay on OVCAR-3; 20.2 µM (inactive) in the assay on OVCAR-4. The GI50 in the assay on OVCAR-8 was 27.9 µM (inactive); in the assay with RXF 393 it was 34.4 µM (inactive); in the assay on SF-295 it was 32.3 µM (inactive); with SF-539, 32.7 µM (inactive); in the assay on SN12C, 19.8 µM (inactive); in the assay on TK-10, 25.7 µM (inactive). For the same compound, the GI50 in the assay with U-251 is 23 µM (inactive).

On to `COC1/C=C/C(C)C(C(C)C(OC)C(C)CCC(=O)C(C)C(CC(=O)O)OC)OC(=O)/C=C/C=C(\C)CC(OC)C(OC)C2=CC(=O)O[C@@H](C(C)C(OC)CC(OC)/C=C/C(C)C(O)C1)[C@H]2O` (stereo partly specified), for which the GI50 in the assay with A498 was 0.0815 µM (active); in the assay on A549, 0.0419 µM (active); with ACHN, 0.0473 µM (active); in the assay on COLO 205 it was 0.0399 µM (active); in the assay with HCT-116, 0.00714 µM (active); with HL-60, 0.0237 µM (active). The 50% growth inhibitory concentration (GI50) with K562 is 0.0564 µM (active); with MDA-MB-435, 0.0681 µM (active); in the assay on NCI-H23, 0.164 µM (active); with NCI/ADR-RES, 0.149 µM (active); in the assay on OVCAR-3, 0.188 µM (active); in the assay on OVCAR-4, 0.153 µM (active). The GI50 in the assay with OVCAR-8 is 0.0337 µM (active); in the assay with SF-295 it was 0.0968 µM (active); in the assay on SN12C, 0.406 µM (active); with TK-10, 0.0703 µM (active); in the assay on U-251, 0.0416 µM (active).

`Cc1c2c(n(CC(c3ccccc3)c3ccccc3)c1C)NN=C(C#N)S2(=O)=O`: the GI50 with A498 was > 100 µM (inactive); in the assay with A549, > 100 µM (inactive); in the assay on ACHN, > 100 µM (inactive); in the assay with COLO 205, > 100 µM (inactive); with HCT-116 it was 74 µM (inactive); with MDA-MB-435, > 100 µM (inactive). For the same compound, the GI50 with NCI-H23 is > 100 µM (inactive); with NCI-H522, 45.6 µM (inactive); in the assay on NCI/ADR-RES, > 100 µM (inactive); with OVCAR-3 it was > 100 µM (inactive); with OVCAR-4 it was > 100 µM (inactive); in the assay with OVCAR-8 it was > 100 µM (inactive). Moreover, the GI50 in the assay with SF-295, in the assay with SF-539, in the assay on SN12C, with TK-10 and in the assay with U-251 was > 100 µM (inactive) throughout.

In the case of `O=S(=O)(O)c1ccc(/N=N/c2ccc(/N=N/c3c(O)ccc4cc(S(=O)(=O)O)ccc34)cc2)cc1`, the GI50 in the assay with A549, in the assay on ACHN, in the assay with COLO 205, with HCT-116, with HL-60 and in the assay on K562 was > 100 µM (inactive) throughout. The GI50 with MDA-MB-435, in the assay with NCI-H23, with NCI-H522, in the assay with NCI/ADR-RES, in the assay with OVCAR-3 and with OVCAR-8 was > 100 µM (inactive) each time. Also, the GI50 in the assay with RXF 393, with SF-295, in the assay on SF-539, in the assay on TK-10 and with U-251 was > 100 µM (inactive) in each case.

Take `COC(=O)c1cc(C(=CCC[C@H]2CC[C@@]3(C)C(CCC4C3CC[C@@]3(C)C4CC[C@@H]3C(C)CCCC(C)C)C2)c2cc(Cl)c(O)c(C(=O)OC)c2)cc(Cl)c1O` (stereo partly specified): the GI50 in the assay with A549, in the assay with ACHN, in the assay with COLO 205, in the assay on HCT-116, in the assay on HL-60 and with K562 was > 10 µM (inactive) in each case. For the same compound, the GI50 in the assay on MDA-MB-435, in the assay with NCI-H23, in the assay with NCI-H522, in the assay on NCI/ADR-RES, in the assay on OVCAR-3 and in the assay with OVCAR-4 was > 10 µM (inactive) in each case. For the same compound, the GI50 in the assay with OVCAR-8, in the assay with RXF 393, in the assay with SF-295, in the assay with SF-539, in the assay on SN12C and in the assay on TK-10 was > 10 µM (inactive) each time. The GI50 in the assay on U-251 was > 10 µM (inactive).
